Among the data in the METLIN SMRT retention time set (Domingo-Almenara et al. 2019) are RP-LC retention time values, retold here.

This series is described as follows: gradient 5% acetonitrile 3 min, to 50% in 2 min, to 85% in 15 min, held 3 min, 100 µL/min. As to conditions: column: Zorbax Extend-C18 2.1 x 50 mm; eluents: water / acetonitrile, 0.1% formic acid. The method, boiled down: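 Over 3 months, pure standards in mixtures of ~100 molecules were run by HPLC coupled to a quadrupole time-of-flight mass spectrometer in positive and negative ionization mode. The column was a Zorbax Extend-C18 (2.1 × 50 mm, 1.8 μm) at 100 μL/min, eluted with water and acetonitrile each holding 0.1% formic acid, with 40 μL dead and 900 μL dwell volumes. Retention time was determined from adduct peaks chosen by software and checked manually.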
In the case of `O=C(NCc1cccs1)C1CCCN(c2nnc3ccc(Cl)cn23)C1` (centres undefined), the RP-LC retention time is 650 s.
Then `CC(NC(=O)Cc1cccn1-c1ccc(Cl)cc1)c1cccnc1` (centres undefined), with 649 s.
For `Cc1cccc(NC(=O)c2nc(N3CCSCC3)c3cnn(C)c3n2)c1` the value was 901 s; for `COC[C@@H]1OCCN(Cc2ccc(C)c(C)c2)[C@H]1c1ccccc1`, 724 s.
With `CCn1c(=O)c(N2CCCC(C(=O)N3CCN(C(=O)c4ccco4)CC3)C2)nc2ccccc21` (centres undefined), the RP-LC retention time turned out to be 832 s.
Take `Cc1ccccc1CNC(=O)CN1CCN(Cc2ccc(F)cc2Cl)C1=O`: the RP-LC retention time amounted to 629 s.
Regarding `COc1ccc(-c2ncc3c(n2)CCN(C(=O)Nc2cccc(C(C)=O)c2)C3)cc1`, the RP-LC retention time is 810 s.
For `CCOc1cc(CNC(=O)C2=Cc3cc(OC)ccc3OC2)ccc1OC` the value was 873 s.
For `CCN(CC)CCOC(=O)C(c1ccccc1)C1CCCCC1` (centres undefined) the value was 882 s; for `CCn1ccc2sc(C)c(C(=O)NCc3cccc(Cl)c3)c2c1=O`, 926 s; for `CCCNC(=O)C1CCN(c2ccc(SCC(=O)NCc3ccc(C)cc3)nn2)CC1`, 656 s.
Then `CCC(=O)N1CCc2cc(N3CC(C(=O)Nc4cc(Cl)ccc4OC)CC3=O)ccc21` (centres undefined), with 828 s.
`COc1ccc(OCC(=O)N2CCN(c3cc(=O)n(C)c(=O)n3C)CC2)cc1` yielded an RP-LC retention time of 655 s.
For `O=C(NCc1ccc(F)cc1Cl)C1CCc2nc(N3CCOCC3)ncc2C1` (centres undefined) the value was 768 s; for `Cc1ccc(Cl)cc1NC(=O)CC1C(=O)NCCN1C(=O)NC1CCCCC1` (centres undefined), 766 s.
For `O=C(CS(=O)Cc1cnn(-c2ccccc2)c1-n1cccc1)NCc1cccc(Br)c1` (centres undefined) the value was 830 s.
Then `CC(O)(CNC(=O)NC1CCCCC1)c1ccc2c(c1)OCO2` (centres undefined), with 709 s; and `O=C(NCc1ccc2c(c1)OCO2)C1CCCN(C(=O)C2Sc3ccccc3NC2=O)C1` (centres undefined), with 703 s.
`CC(CCc1ccccc1)NC(=O)Cn1c(=O)n(C(C)C)c2ccc(S(=O)(=O)N3CCCC3)cc21` (centres undefined) returned an RP-LC retention time of 932 s.
Then `CSc1ccc(NC(=O)c2c(C)oc3ccn(Cc4ccc(F)cc4)c(=O)c23)cc1`, with 1270 s.
Compound `CCc1noc(-c2ccnc(-n3cnc(C(=O)NCc4ccccc4C)c3)c2)n1` gave an RP-LC retention time of 939 s.
`COc1ccc(Cc2nnc(C3CCN(C(=O)c4cccc(N(C)C)c4)CC3)s2)cc1` yielded an RP-LC retention time of 712 s.
For `Cc1ccccc1CCNC(=O)c1cc2n(n1)CC(C)(C(=O)NCc1ccc(F)cc1)N(C)C2=O` (centres undefined) the value was 821 s.
For `O=C(Nc1ccc(Cl)cc1)Nc1c(-c2ccncc2)nc2ccccn12` the value was 631 s.
Then `c1ccc(C2CNCc3ccccc32)cc1` (centres undefined), with 698 s.
The compound `COc1ccc(CNC(=O)C2=C3CCCN3c3ccccc3S2(=O)=O)c(OC)c1` had an RP-LC retention time of 835 s.
For `Cc1ccc(NC(=O)N2CCCC(Cn3cnc4cccnc43)C2)cc1Cl` (centres undefined) the value was 747 s.
`COc1ccc(N2CCN(C(=O)C3CCN(c4nc(NC(C)=O)ns4)CC3)CC2)cc1` displayed an RP-LC retention time of 618 s.
`Cc1ccc(C)c(NC(=O)C2CCN(S(C)(=O)=O)c3cc(Cl)ccc3O2)c1` (centres undefined) displayed an RP-LC retention time of 935 s.
In the case of `CCc1cccc(NC(=O)N2CCCC2c2nc(-c3ccccc3OC)no2)c1` (centres undefined), the RP-LC retention time amounted to 970 s.
Then `CNC(=O)[C@@H]1C[C@H](Oc2ccccc2)CN1C(=O)c1n[nH]c(=O)c2ccccc12`, with 650 s; and `NCCC1CCN(C(=O)Nc2cccc(F)c2)CC1`, with 595 s; and `O=S(=O)(c1ccccc1F)N1CCC(OCc2noc(C3CCCO3)n2)CC1` (centres undefined), with 865 s.
For `Cc1ccc(NC(=O)CSc2cc(N3CCCCC3)ncn2)cc1Cl` the value was 1050 s.
With `Cc1scc2nc(C3CCC3)nc(N3CCC(C(=O)N4CCN(c5ccc(F)cc5)CC4)CC3)c12`, the RP-LC retention time came out at 810 s.
Take `CC(C)C(=O)n1nc(-c2ccc(Cl)cc2)nc1N`: the RP-LC retention time was determined as 1050 s.
For `CC1=NS(=O)(=O)N(C)C=C1C(=O)OCc1nc(-c2ccc(Cl)cc2)no1` the value was 1010 s; for `O=C(CCc1cn(Cc2ccccc2F)c2ccccc12)N1CCN(c2ccccn2)CC1`, 737 s; for `O=C(Cc1csc2nc(-c3cccc(Br)c3)cn12)N1CCc2ccccc21`, 1040 s.
On to `O=C(CN1CCCCCC1)N1CCC2(CCC2O)CC1` (centres undefined), for which the RP-LC retention time came to 555 s.
Then `CN1C(=O)C2CCCCN2c2ccc(C(=O)NCCN3CCCC3)cc21` (centres undefined), with 981 s.
For `Fc1ccc(-c2nc(-c3ccc4nncn4c3)no2)cc1` the value was 810 s; for `CC1=C(c2ccccc2)S(=O)(=O)N=C1N1CCC(NC(=O)C2CCOC2)CC1` (centres undefined), 650 s.
For `COCCN1C(=O)c2ccccc2C(C(=O)NCCCN2C(C)CCCC2C)C1c1cccs1` (centres undefined) the value was 633 s.
As to `CC(=O)N1CCc2cc(N3CC(C(=O)Nc4ccccc4Cl)CC3=O)ccc21` (centres undefined), the RP-LC retention time is 701 s.
For `COC(=O)[C@H](Cc1c[nH]c2ccccc12)NC(=O)c1cccc(-n2cnnn2)c1` the value was 753 s; for `CCc1nc(-c2ccc3c(c2)CCN3C(=O)Cc2ccc(NC(C)=O)cc2)no1`, 796 s.
Then `CN(CC1CCCO1)S(=O)(=O)c1ccc(C(=O)N2CCc3ccccc3C2)cc1` (centres undefined), with 808 s; and `Cc1ccc(NC(=O)N2CCc3nc(CNC(=O)C4CCC4)n(C)c3C2)cc1`, with 598 s.
For `Cc1cccc(-c2nc(N)n(C(=O)C3CC3)n2)c1` the value was 885 s; for `CCc1nccn1Cc1noc(-c2ccccc2F)n1`, 613 s.
Compound `O=C(NCc1ccc(F)cc1F)C1CC(=O)N(c2ccc3c(c2)CCN3C(=O)C2CC2)C1` (centres undefined) had an RP-LC retention time of 750 s.
With `CCCNc1cc(N2CCC(CCC(=O)N(C)CCc3ccccn3)CC2)ncn1`, the RP-LC retention time was 570 s.
Then `CCCCN1N=C(C(=O)N2CCCCCC2)S(=O)(=O)c2ccc(C)cc21`, with 1050 s.
With `O=C(NC1CCCc2ccccc21)C1CCN(C(=O)C2Sc3ccccc3NC2=O)CC1` (centres undefined), the RP-LC retention time is 793 s.
For `Cc1cc2ncn(CC3CCN(C(=O)c4ccsc4)CC3)c2cc1C` the value was 583 s; for `Cc1ccccc1OCc1nc(CCN(C)C(=O)Cc2cccs2)no1`, 924 s; for `CCOC(=O)c1nc(NCc2ccc(OC)cc2)c2ccccc2n1`, 749 s.
Then `COC(=O)c1ccccc1NC(=O)CSc1nc(C)cc(N2CCOCC2)n1`, with 603 s.
Then `Clc1cc(Cl)cc(-c2ccc(CNCc3ccncc3)o2)c1`, with 649 s; and `COc1ccc(C(C)NC(=O)C2=C3CCCN3c3ccccc3S2(=O)=O)cc1OC` (centres undefined), with 779 s.
For `COc1ccc(C2(C)OC(c3cc(C)nc4ccccc34)=NN2C(C)=O)c(OC)c1` (centres undefined), the RP-LC retention time came out at 818 s.
In the case of `O=C(NCCCn1c(C(F)(F)F)nc2cccnc21)Nc1cccc(F)c1`, the RP-LC retention time worked out at 811 s.
Consider `O=C(NCCN1CCOCC1)C1CCCN(c2ncnc3c2nc2n3CCCCC2)C1` (centres undefined), for which the RP-LC retention time amounted to 575 s.
Then `CC(C)NC(=O)CSC1CCc2ccccc2NC1=O` (centres undefined), with 661 s.
In turn, `CCOc1ccc(C(=O)NCc2noc(-c3ccc(OC)cc3)n2)cc1` gave an RP-LC retention time of 876 s.
Then `COc1cc(C(=O)Nc2ccc(C)cc2-c2nc3ccccc3[nH]c2=O)cc(OC)c1OC`, with 772 s; and `CCc1ccc2c(c1)cc(S(=O)(=O)c1ccccc1)c(=O)n2CC(=O)NC(C)C`, with 882 s; and `O=C(c1cc(-c2ccccn2)n[nH]1)N1CCN(C(=O)C2CCCCC2)CC1`, with 659 s.
The compound `COc1ccc(S(=O)(=O)N2CCc3nc(-c4ccc(F)cc4)ncc3C2)cc1` gave an RP-LC retention time of 1050 s.
Then `Cn1cc(C(=O)OCC2CCN(CCNS(C)(=O)=O)CC2)c2ccccc21`, with 680 s.
In the case of `Cc1[nH]c2ccccc2c1S(=O)(=O)CCNC(=O)Nc1cccs1`, the RP-LC retention time was found to be 683 s.
For `O=c1c2c(CO)c(-c3ccccc3)nn2ccn1CCOc1ccccc1` the value was 752 s; for `O=C(c1ccccn1)N1CCN(C(=O)c2nnn3c2COC(c2ccccc2)C3)CC1` (centres undefined), 717 s.
Then `CCCN1CCN(C(=O)c2cc3n(n2)CC(C)(C(=O)NC2CCCCCC2)N(C)C3=O)CC1` (centres undefined), with 614 s.
Then `Cc1ccc2nc(NC(=O)C3CCN(S(=O)(=O)c4ccc5[nH]c(=O)ccc5c4)CC3)sc2c1`, with 814 s; and `CN(C)c1cccc(-c2nc(-c3ccc4c(c3)nnn4CCC(=O)N3CCCC3)no2)c1`, with 990 s; and `COc1cc(NS(=O)(=O)c2ccc(NC(=O)c3ccc(Cl)cc3)cc2)nc(OC)n1`, with 868 s.
For the compound `CCn1cc(-c2nc(C(=O)NCc3ccccc3F)cs2)c2cccnc21`, the RP-LC retention time is 987 s.
